The results in this text go back to publication PMC6934184, “Selective DNA-PKcs inhibition extends the therapeutic index of localized radiotherapy and chemotherapy” (The Journal of Clinical Investigation, 2019).

The inhibition is the percentage by which the read-out fell short of the control.

The target in the assay is T1, GRK4 (Homo sapiens, UniProt P32298).
T1 construct: purchased Thermo Fisher Scientific (Life Technologies) SelectScreen
The assay can be described thus: SelectScreen Z'LYTE. Type of assay: biochemical. In a few lines:
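SelectScreen broad panel; activity (Z'LYTE, Adapta) plus binding formats. ATP: Km app for CSF1R Z'LYTE; 10 for CAMK1 Adapta. Readout = % per kinase.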

T1 sequence (P32298 whole entry): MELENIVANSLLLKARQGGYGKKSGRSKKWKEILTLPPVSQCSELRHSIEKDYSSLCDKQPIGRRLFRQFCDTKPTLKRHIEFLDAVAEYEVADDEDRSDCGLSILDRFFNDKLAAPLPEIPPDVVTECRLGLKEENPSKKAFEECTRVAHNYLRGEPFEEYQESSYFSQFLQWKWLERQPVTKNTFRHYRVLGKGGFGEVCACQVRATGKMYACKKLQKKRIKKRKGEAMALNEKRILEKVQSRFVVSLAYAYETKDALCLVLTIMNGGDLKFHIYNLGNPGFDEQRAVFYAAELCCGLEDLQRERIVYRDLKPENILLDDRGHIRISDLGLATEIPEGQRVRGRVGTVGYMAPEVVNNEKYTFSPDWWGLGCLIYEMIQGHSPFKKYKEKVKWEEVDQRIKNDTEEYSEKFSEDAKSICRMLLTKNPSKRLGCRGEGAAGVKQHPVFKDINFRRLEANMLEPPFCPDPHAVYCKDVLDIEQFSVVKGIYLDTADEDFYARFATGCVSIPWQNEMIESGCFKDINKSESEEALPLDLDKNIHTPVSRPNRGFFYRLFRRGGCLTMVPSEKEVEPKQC

For `CN(C(=O)CN1CCOCC1)c1ccc2sc3c(-c4cccc5c(=O)cc(N6CC7CCC(C6)O7)oc45)cccc3c2c1` [NU5455], testing at 1 µM gave an inhibition of 3.5%.
